“Also recorded” adds a separate entry of the source. Like-named read-outs stand apart in the source and are kept apart here.
Key:
[1] = test system: recruitment of retromer component Vps26 to early endosomes; format: cell-based, human
[2] = test system: transport of STx2B to the Golgi apparatus; format: cell-based, human
STx2-induced cell death = format: cell-based, human
lethal STx2 toxicosis = settings: mouse, in vivo
STx1-induced cell death = format: cell-based, human
LC3-positive punctae = format: cell-based, human
HeLa cells = settings: 10 μM
[3] = test system: transport of STx1 B-subunit (STx1B) to the Golgi; format: cell-based, human
lethal STx1 toxicosis [4] = settings: mouse, in vivo
[5] = test system: pH of endolysosomal compartments; format: cell-based, human
[6] = test system: transport of STx2B to the Golgi apparatus; settings: cited from earlier work
lethal STx1 toxicosis [7] = settings: mouse, in vivo; cited from earlier work
[8] = test system: transport of STx1 B-subunit (STx1B) to the Golgi; settings: cited from earlier work

For `OCCOc1ccc(/C(=C(/CCCl)c2ccccc2)c2ccccc2)cc1` [ospemifene], the “Recruitment of Vps26 to early endosomes” value [1] was “did not”, the “Transport of STx2B to the Golgi (data not shown)” value [2] was “did not” and the “Protection against STx2-induced cell death relative to tamoxifen” value (STx2-induced cell death) was “failed to protect all together”.

For `CC/C(=C(\c1ccccc1)c1ccc(OCCN(C)C)cc1)c1ccccc1` [tamoxifen, (Z)-2-(4-(1,2-diphenyl-1-butenyl)phenoxy)-N,N-dimethylethan-1-amine], the “Protection against STx2 with additional oral tamoxifen after toxin” value (lethal STx2 toxicosis) was “A similar level of protection against STx2”, the “Survival time versus vehicle, STx2” value (lethal STx2 toxicosis) was “survived for significantly longer than those that received vehicle” and the “Survival of STx2-treated mice” value (lethal STx2 toxicosis; ip) was “significantly improved the survival”. The “Protection against STx1-induced cell death” value (STx1-induced cell death) was about 50 fold, the LC3-positive punctae (LC3-positive punctae) was “elevated” and the “Cytotoxicity / cell viability of compound by itself” value (from here on “Cytotoxicity / cell viability”) (HeLa cells) was “without inducing cytotoxicity”. For the same molecule, the “Transport of STx1B to the Golgi and STx1B degradation” value [3] was “inhibited the transport of STx1 B-subunit (STx1B) to the Golgi and induced degradation of STx1B”, the “Health until end of experiment, STx1-group” value (lethal STx1 toxicosis [4]) was “a subset of tamoxifen-treated mice remained healthy until the end of the experiment” and the “Survival of STx1-treated mice” value (lethal STx1 toxicosis [4]; ip) was “significantly improved the survival”. The “Positioning of early endosomes” value [1] was “gained a perinuclear prominence”, the “Recruitment of Vps26 to early endosomes” value ([1]; 10 μM) was “enhanced” and the “Fate of STx2B in treated cells” value [2] was “the toxin failed to traffic to the Golgi and instead was rerouted to Rab7-positive late endosomes and degraded”. The “STx2B transport after short treatment” value [2] was “did not have an effect; also recorded: There were no differences between groups”, the “Transport of STx2B to the Golgi apparatus” value [2] was “inhibitors of STx2B transport” and the “Inhibitory effect on STx2B transport compared with chloroquine” value ([2]; 24 h) was “had a greater inhibitory effect”. For the same molecule, the “Lowest tamoxifen dose at which protection was evident” value (STx2-induced cell death) was 2.5 µM, the “Protection against STx2-induced cell death” value (STx2-induced cell death) was about 200 fold and the “Change in endolysosomal pH (Lysosensor signal)” value [5] was “an increase evident at early time-points (30-60 min) but not 24 h after treatment”. The “Morphology of endolysosomal compartments” value [5] was “morphological differences were apparent”.

With `CN(C)CCOc1ccc(/C(=C(/CCCl)c2ccccc2)c2ccccc2)cc1` [toremifene, (Z)-2-(4-(4-chloro-1,2-diphenylbut-1-en-1-yl)phenoxy)-N,N-dimethylethan-1-amine] the “Cytotoxicity / cell viability” value (HeLa cells) was “did not alter cell viability by themselves”, the “Recruitment of Vps26 to early endosomes” value ([1]; 10 μM) was “increased Vps26 levels on early endosomes at 24 h” and the “Transport of STx2B to the Golgi (data not shown)” value ([2]; 10 μM) was “blocked transport of STx2B to the Golgi”. The “Protection against STx2-induced cell death relative to tamoxifen” value (STx2-induced cell death) was “provided as much protection as tamoxifen against STx2-induced cell death” and the “Endolysosomal pH at 30 min (data not shown)” value ([5]; 10 μM, 30 min) was “increased endolysosomal pH at 30 min”.

In the case of `CC/C(=C(\c1ccc(O)cc1)c1ccc(OCCNC)cc1)c1ccccc1` [endoxifen, (Z)-4-(1-(4-(2-(methylamino)ethoxy)phenyl)-2-phenylbut-1-en-1-yl)phenol], the “Protection against STx2-induced cell death relative to tamoxifen” value (STx2-induced cell death) is reported as “substantially weaker than tamoxifen or 4-hydroxytamoxifen”.

With `CO/C1=C\C(C)=C\[C@@H](C)[C@@H](O)[C@@H](C)C/C(C)=C/C=C/[C@H](OC)[C@@H]([C@@H](C)[C@@H](O)[C@H](C)[C@@]2(O)C[C@@H](O)[C@H](C)[C@@H](C(C)C)O2)OC1=O` [bafilomycin A1] the “STx2B transport after short treatment” value [2] was “did not have an effect; also recorded: There were no differences between groups”, the “Transport of STx2B to the Golgi apparatus” value [2] was “robustly inhibited the transport of STx2B to the Golgi apparatus” and the “Change in endolysosomal pH (Lysosensor signal)” value [5] was “a similar effect was observed”. The “Morphology of endolysosomal compartments” value [5] was “morphological differences were apparent”.

For `[Mn+2]` [manganese], the “Sensitivity of STx2 transport to manganese (literature)” value [6] is listed as “manganese-insensitive”, the “Protection against lethal STx1-toxicosis (literature)” value (lethal STx1 toxicosis [7]) is listed as “protects cells and mice against lethal STx1-toxicosis” and the “Early endosome-to-Golgi transport of STx1 (literature)” value [8] is listed as “blocks the early endosome-to-Golgi transport of STx1”.

With `CCN(CC)CCCC(C)Nc1ccnc2cc(Cl)ccc12` (stereo not drawn) [chloroquine] the “Transport of STx2B to the Golgi apparatus” value [2] was “inhibitors of STx2B transport”.

For `O=C(c1ccc(OCCN2CCCCC2)cc1)c1c(-c2ccc(O)cc2)sc2cc(O)ccc12` [raloxifene, (6-hydroxy-2-(4-hydroxyphenyl)benzo[b]thiophen-3-yl)(4-(2-(piperidin-1-yl)ethoxy)phenyl)methanone], the “Cytotoxicity / cell viability” value (HeLa cells) was “did not alter cell viability by themselves” and the “Protection against STx2-induced cell death relative to tamoxifen” value (STx2-induced cell death) was “provided as much protection as tamoxifen against STx2-induced cell death”.

In the case of `CC/C(=C(\c1ccc(O)cc1)c1ccc(OCCN(C)C)cc1)c1ccccc1` [4-hydroxytamoxifen, (Z)-4-(1-(4-(2-(dimethylamino)ethoxy)phenyl)-2-phenylbut-1-en-1-yl)phenol], the “Protection against STx2-induced cell death relative to tamoxifen” value (STx2-induced cell death) is reported as “A lower level of protection”.
